# Assay results: patent US20250221413A1, “Use and Preparation Method of Sulfoxamyl, and Oxidation System” (priority 2023, published 2025)
# Several values for one entry are separate records, joined by “and”; a condition that tells them apart may be missing. Equal values may be shown once. Entries after “also recorded” stand apart in the source; their conditions may differ.
# Legend:
# SD rats = assay: Acute skin toxicity test (limit test); format: in vivo
# Protocol: Materials: the test agent 98% sulfoxamyl technical, batch number 20230708-1, was provided by Ningxia Hugerise Chemical Co., Ltd. Experimental animals: SPF-grade SD rats, half male and half female, weighing 180 g to 220 g, were provided by Jinan Pengyue Experimental Animal Breeding Co., Ltd., license number SCXK (Lu) 20190003. Rearing environment: the rats were housed in an SPF-grade animal room with free access to water and food, a temperature of 20° C. to 25° C., a humidity of 40% to 60%, and a 12 h/12 h light cycle. Feed: conventional pellet feed was provided by Jinan Pengyue Experimental Animal Breeding Co., Ltd.
# The test was conducted in accordance with “Toxicological test methods of pesticides for registration, GB15670.5-2017”, “Acute toxicity test, GB15193.3-2003” and relevant acute toxicity research data.
# Method: the sulfoxamyl was ground into powder, passed through a 200-mesh sieve, and fully moistened with 0.5% tragacanth solution to ensure desirable contact between the drug and the skin. The dose limit of the drug's transdermal toxicity was preliminarily determined through a limit test. According to the “Toxicological test methods of pesticides for registration, GB/T 15670.5-2017”, 2,000 mg/kg was selected as the dose limit. 10 SD rats were selected, half male and half female. After removing the fur and preparing the skin on the midline of the rats' backs, the prepared skin area was 36 cm^2 to 40 cm^2. The drug was evenly applied to the fur-removed area and covered and fixed with multiple layers of sterile gauze; after 24 h of exposure to the poison, the residual drug on the skin was removed; the rats were observed once a day for 14 consecutive days, and their poisoning reaction, development process, and death were recorded.
# [1] = Half-life test (hydrolysis in neutral distilled water, HPLC); format: physicochemical
# From the text: A 98% sulfoxamyl sample was quantitatively dissolved in neutral distilled water, and samples were taken and injected at certain time intervals under HPLC detection. Data were collected according to the area normalization method based on the integrated sulfoxamyl peak area ratio.
# Meloidogyne incognita = assay: Indoor toxicity test against Meloidogyne incognita second-instar larvae (J2)
# Protocol: Materials: the tested nematodes were collected from three different areas, namely cucumber crops in Dawenkou Town, Tai'an City, Shandong Province, and were all identified as southern root-knot nematodes (Meloidogyne incognita). The diseased roots were washed, cut into small sections of 0.5 cm to 1 cm, rinsed in 1% NaClO solution for about 30 s to 60 s, and rinsed with 200-mesh and 500-mesh sieves to collect nematode eggs for later use. The collected eggs were incubated at 25° C. using the Bayman funnel method and the second-instar larvae were collected 1 time per 24 h to ensure that the second-instar larvae selected each time were fresh and of consistent vitality.
# The agent was 98% sulfoxamyl technical, and the comparison agents were 96% oxamyl technical and 87% fosthiazate technical.
# The preparation for the agent was in accordance with the provisions for preparation of the liquid medicine in the Agricultural Industry Standard of the People's Republic of China NYT 1833.1-2009 “Guideline for laboratory bioassay of pesticides”, as shown in Table 6.
# Methods: according to the experimental plan, the test agent was diluted to different mass concentrations, and 0.5 mL of the agent solution and 0.5 mL of the nematode solution (containing about 100 nematodes) were added into a 24-well cell culture plate. The treatment with each concentration of the agent was repeated 4 times, and auxiliary agent control and blank control were also conducted. […]
structure (smiles),measurement,setting,value
"CNC(=O)O/N=C(/C(=O)N(C)C)S(C)(=O)=O [Sulfoxamyl, N,N-dimethyl-2-[[[(methylamino)carbonyl]oxy]imino]-2-(methylsulfonyl)acetamide]","percutaneous toxicity, in words","SD rats; 2,000 mg/kg",no percutaneous toxicity
same,Main clinical symptom,"SD rats; 2,000 mg/kg on skin, 10 SD rats","skin is intact, normal in color, and without redness or swelling"
same,deaths,"SD rats; 2,000 mg/kg on skin, 10 SD rats, 14 days",none of the 10 rats die
same,Main clinical symptom,"SD rats; 2,000 mg/kg on skin, 10 SD rats, listed as sulfoxamyl",Normal
same,toxicity level (acute percutaneous),SD rats; GB15670-1995 classification,low toxic; also recorded: Low Toxicity
same,time to complete decomposition,[1]; neutral conditions,about 8 h
same,Changes in ratio of sulfoxamyl peak area under HPLC,"[1]; neutral distilled water, 25° C., Time 0 h",99.86%
same,Changes in ratio of sulfoxamyl peak area under HPLC,"[1]; neutral distilled water, 25° C., Time 0.5 h",73%
same,Changes in ratio of sulfoxamyl peak area under HPLC,"[1]; neutral distilled water, 25° C., Time 1 h",63%
same,Changes in ratio of sulfoxamyl peak area under HPLC,"[1]; neutral distilled water, 25° C., Time 2 h",48%
same,Changes in ratio of sulfoxamyl peak area under HPLC,"[1]; neutral distilled water, 25° C., Time 3 h",32%
same,Changes in ratio of sulfoxamyl peak area under HPLC,"[1]; neutral distilled water, 25° C., Time 4 h",20%
same,Changes in ratio of sulfoxamyl peak area under HPLC,"[1]; neutral distilled water, 25° C., Time 5 h",11%
same,Changes in ratio of sulfoxamyl peak area under HPLC,"[1]; neutral distilled water, 25° C., Time 6 h",5%
same,Changes in ratio of sulfoxamyl peak area under HPLC,"[1]; neutral distilled water, 25° C., Time 7 h",4%
same,Changes in ratio of sulfoxamyl peak area under HPLC,"[1]; neutral distilled water, 25° C., Time 8 h",3%
same,half-life,"[1]; neutral distilled water, neutral aqueous solution, 25° C.",2 h
same,Corrected mortality,"Meloidogyne incognita; 3.1 mg/L, 24 h",16.24% and 26.66% and 16.93%
same,Mortality,"Meloidogyne incognita; 3.1 mg/L, 24 h",17.27% and 27.56% and 17.95%
same,Corrected mortality,"Meloidogyne incognita; 3.1 mg/L, 48 h",26.21% and 30.50% and 18.49%
same,Death count,"Meloidogyne incognita; 3.1 mg/L, 48 h",21 and 30 and 40 and 23
same,Mortality,"Meloidogyne incognita; 3.1 mg/L, 48 h",27.27% and 31.50% and 19.66%
same,Corrected mortality,"Meloidogyne incognita; 3.1 mg/L, 72 h",36.09% and 39.84% and 31.21%
same,Death count,"Meloidogyne incognita; 3.1 mg/L, 72 h",39 and 41 and 52 and 38
same,Mortality,"Meloidogyne incognita; 3.1 mg/L, 72 h",37.27% and 40.94% and 32.48%
same,Corrected mortality,"Meloidogyne incognita; 6.25 mg/L, 24 h",22.19% and 15.49% and 28.36%
same,Death count,"Meloidogyne incognita; 6.25 mg/L, 24 h",19 and 25 and 20 and 31
same,Mortality,"Meloidogyne incognita; 6.25 mg/L, 24 h",23.15% and 16.53% and 29.25%
same,Corrected mortality,"Meloidogyne incognita; 6.25 mg/L, 48 h",30.48% and 22.86% and 33.96%
same,Death count,"Meloidogyne incognita; 6.25 mg/L, 48 h",36 and 34 and 29 and 37
same,Mortality,"Meloidogyne incognita; 6.25 mg/L, 48 h",31.48% and 23.97% and 34.91%
same,Corrected mortality,"Meloidogyne incognita; 6.25 mg/L, 72 h",32.08% and 27.59% and 38.49%
same,Death count,"Meloidogyne incognita; 6.25 mg/L, 72 h",41 and 36 and 35 and 42
same,Mortality,"Meloidogyne incognita; 6.25 mg/L, 72 h",33.33% and 28.93% and 39.62%
same,Corrected mortality,"Meloidogyne incognita; 12.5 mg/L, 24 h",43.94% and 48.97% and 49.86%
same,Death count,"Meloidogyne incognita; 12.5 mg/L, 24 h",56 and 54 and 62 and 53
same,Mortality,"Meloidogyne incognita; 12.5 mg/L, 24 h",44.63% and 49.60% and 50.48%
same,Corrected mortality,"Meloidogyne incognita; 12.5 mg/L, 48 h",56.40% and 56.17% and 57.49%
same,Death count,"Meloidogyne incognita; 12.5 mg/L, 48 h",67 and 69 and 71 and 61
same,Mortality,"Meloidogyne incognita; 12.5 mg/L, 48 h",57.02% and 56.80% and 58.10%
same,Corrected mortality,"Meloidogyne incognita; 12.5 mg/L, 72 h",61.27% and 67.40% and 67.01%
same,Death count,"Meloidogyne incognita; 12.5 mg/L, 72 h",71 and 75 and 85
same,Mortality,"Meloidogyne incognita; 12.5 mg/L, 72 h",61.98% and 68.00% and 67.62%
same,Corrected mortality,"Meloidogyne incognita; 25 mg/L, 24 h",58.55% and 63.70% and 68.85%
same,Death count,"Meloidogyne incognita; 25 mg/L, 24 h",78 and 75 and 68 and 90
same,Mortality,"Meloidogyne incognita; 25 mg/L, 24 h",59.06% and 64.15% and 69.23%
same,Corrected mortality,"Meloidogyne incognita; 25 mg/L, 48 h",63.25% and 67.46% and 68.78%
same,Death count,"Meloidogyne incognita; 25 mg/L, 48 h",78 and 81 and 72 and 90
same,Mortality,"Meloidogyne incognita; 25 mg/L, 48 h",63.78% and 67.92% and 69.23%
same,Corrected mortality,"Meloidogyne incognita; 25 mg/L, 72 h",74.33% and 84.62% and 68.65%
same,Death count,"Meloidogyne incognita; 25 mg/L, 72 h",78 and 95 and 90
same,Mortality,"Meloidogyne incognita; 25 mg/L, 72 h",74.80% and 84.91% and 69.23%
